The target of the assay is T1, prostanoid EP3 receptors (Homo sapiens, UniProt P43115).
T1 sequence (P43115 1-390): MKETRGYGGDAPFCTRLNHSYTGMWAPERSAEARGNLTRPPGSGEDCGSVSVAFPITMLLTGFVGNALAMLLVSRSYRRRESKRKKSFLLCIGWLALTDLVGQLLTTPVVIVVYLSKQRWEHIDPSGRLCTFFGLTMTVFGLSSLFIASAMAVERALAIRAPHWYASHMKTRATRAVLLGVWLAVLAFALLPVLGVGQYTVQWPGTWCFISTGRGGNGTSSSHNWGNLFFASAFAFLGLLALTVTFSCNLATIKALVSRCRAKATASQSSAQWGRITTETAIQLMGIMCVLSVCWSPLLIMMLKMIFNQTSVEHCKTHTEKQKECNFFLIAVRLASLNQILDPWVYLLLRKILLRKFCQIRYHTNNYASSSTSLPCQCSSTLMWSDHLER
The assay is described as follows: binding on prostanoid EP3 receptors (method of Abramovitz et al.). As to conditions: read-out: Activity (EP3 receptor binding, IC50 class). The method, then: The compounds of the invention were assayed for their binding on prostanoid EP3 receptors according to the method of Abramovitz et al. [Bioch. Biophys.
For orientation: IC50 means the concentration at which inhibition is half-maximal. Take `O=C(C=Cc1cccc2ccn(C(=O)c3ccc4ccccc4c3)c12)NS(=O)(=O)c1cccs1` [Compound P005]: the IC50 is below 1000 nM.
For `Cc1cn(Cc2ccccc2Cl)c2c(/C=C/C(=O)NS(=O)(=O)c3cccs3)cccc12` [Compound P086] the value was below 1000 nM.
With `O=C(COc1cccc2[nH]cc(S(=O)(=O)c3ccc4ccccc4c3)c12)NS(=O)(=O)c1ccc(F)cc1` [Compound P236], the IC50 is below 1000 nM.
For `O=C(COc1cccc2c1N(Cc1ccc(OC(F)F)cc1)C(=O)CO2)NS(=O)(=O)c1cccs1` [Compound P026] the value was 1000 to 10000 nM.
For `O=C(COc1cccc2[nH]cc(Sc3ccc(Cl)c(Cl)c3)c12)NS(=O)(=O)c1cc(Cl)c(Cl)s1` [Compound P178], the IC50 is below 1000 nM.
As to `O=C(/C=C/c1cccc2c1N(Cc1ccc3ccccc3c1)CC2)NS(=O)(=O)c1cccs1` [Compound P003], the IC50 was below 1000 nM.
To `CC1C(=O)N(Cc2ccc3ccccc3c2)c2c(C=CC(=O)NS(=O)(=O)c3cc(Cl)c(Cl)s3)cccc21` (stereo not drawn) [Compound P112] belongs below 1000 nM.
With `O=C(COc1cccc2[nH]cc(S(=O)(=O)c3ccc(F)cc3Cl)c12)NS(=O)(=O)c1cc(Cl)c(Cl)s1` [Compound P234], the IC50 is below 1000 nM.
For `O=C(/C=C/c1cccc2c(CO)cn(Cc3ccc(Cl)cc3Cl)c12)NS(=O)(=O)c1cccs1` [Compound P062] the value was below 1000 nM.
Regarding `Cc1ccc(CN2C(=O)COc3cccc(OCC(=O)NS(=O)(=O)c4cccs4)c32)cc1C` [Compound P020], the IC50 lay in the range of 1000 to 10000 nM.
To `CC12CCCC(C=CC(=O)NS(=O)(=O)c3cc(Cl)c(Cl)s3)=C1N(Cc1cccc(Cl)c1Cl)C(=O)C2` (stereo not drawn) [Compound P299] belongs below 1000 nM; to `O=C(C=Cc1cc(F)cc2ccn(Cc3ccc4ccccc4c3)c12)NS(=O)(=O)c1cccs1` [Compound P060], below 1000 nM.
To `CC12CCCC(C=CC(=O)NS(=O)(=O)c3cc(Cl)cc(Cl)c3)=C1N(Cc1ccc(Cl)cc1Cl)C(=O)C2` (stereo not drawn) [Compound P280] belongs below 1000 nM; to `Cn1cc(C=CC(=O)NS(=O)(=O)c2ccc(Cl)c(Cl)c2)c2c(Oc3ccc4ccccc4c3)cccc21` [Compound P355], below 1000 nM; to `COc1cc(Cn2cc(C)c3cccc(/C=C/C(=O)NS(=O)(=O)c4cc(Cl)c(Cl)s4)c32)cc(OC)c1` [Compound P141], below 1000 nM.
As for `CC12CCCC(C=CC(=O)NS(=O)(=O)c3cc(F)cc(F)c3)=C1N(Cc1cccc(Cl)c1Cl)C(=O)C2` (stereo not drawn) [Compound P298], the IC50 is below 1000 nM.
For `O=C(CN1CCCc2cccc(OCc3ccc4ccccc4c3)c21)NS(=O)(=O)c1cccs1` [Compound P015] the value was 1000 to 10000 nM; for `Cc1cn(Cc2ccc(F)cc2)c2c(/C=C/C(=O)NS(=O)(=O)c3cc(Cl)c(Cl)s3)cccc12` [Compound P120], below 1000 nM.
For `CC12CCCC(C=CC(=O)NS(=O)(=O)c3ccc(F)c(F)c3)=C1N(Cc1cccc(Cl)c1Cl)C(=O)C2` (stereo not drawn) [Compound P297] the value was below 1000 nM; for `CN1C(=O)C(C)(Cc2ccc3ccccc3c2)c2c(C=CC(=O)NS(=O)(=O)c3cc(Cl)c(Cl)s3)cccc21` (stereo not drawn) [Compound P148], below 1000 nM.
To `CC12CCCC(C=CC(=O)NS(=O)(=O)c3cc(Cl)c(Cl)s3)=C1N(Cc1cccc(F)c1)C(=O)C2` (stereo not drawn) [Compound P262] belongs below 1000 nM; to `CC(C)c1cn(Cc2ccc(Cl)cc2Cl)c2c(CCC(=O)NS(=O)(=O)c3cccs3)cccc12` [Compound P091], 1000 to 10000 nM; to `Cn1cc(C=CC(=O)NS(=O)(=O)c2cc(F)c(F)cc2F)c2c(Oc3ccc(F)cc3F)cccc21` [Compound P324], below 1000 nM.
`CC1(Br)C(=O)N(Cc2ccc3ccccc3c2)c2c(C=CC(=O)NS(=O)(=O)c3cccs3)cccc21` (stereo not drawn) [Compound P110]: the IC50 is below 1000 nM.
For `O=C(COc1cccc2c1N(Cc1ccc3nonc3c1)C(=O)CO2)NS(=O)(=O)c1cccs1` [Compound P042] the value was 1000 to 10000 nM.
Take `CN1C(=O)C(Nc2ccc(Cl)c(Cl)c2)c2c(C=CC(=O)NS(=O)(=O)c3cc(Cl)c(Cl)s3)cccc21` (stereo not drawn) [Compound P271]: the IC50 is below 1000 nM.
For `CCOC(=O)C12CCCC(C=CC(=O)NS(=O)(=O)c3cc(Cl)c(Cl)s3)=C1N(Cc1ccc(Cl)cc1Cl)C(=O)C2` (stereo not drawn) [Compound P345] the value was below 1000 nM; for `O=C(COc1cccc2[nH]cc(Sc3ccc4ccccc4c3)c12)NS(=O)(=O)c1ccccc1Cl` [Compound P183], below 1000 nM; for `Cn1cc(C=CC(=O)NS(=O)(=O)c2cc(Cl)cc(Cl)c2)c2c(Oc3ccc4ccccc4c3)cccc21` [Compound P357], below 1000 nM.
For the compound `Cc1cn(Cc2cn3ccccc3n2)c2c(C=CC(=O)NS(=O)(=O)c3cc(Cl)cc(Cl)c3)cc(F)cc12` [Compound P408], the IC50 is below 1000 nM.
For `COc1ccc(S(=O)(=O)NC(=O)COc2cccc3[nH]cc(S(=O)(=O)c4ccc5ccccc5c4)c23)cc1` [Compound P193] the value was below 1000 nM; for `COc1ccc(S(=O)(=O)c2c[nH]c3cccc(OCC(=O)NS(=O)(=O)c4cc(Cl)c(Cl)s4)c23)cc1` [Compound P210], below 1000 nM; for `O=C(COc1cccc2c1N(Cc1ccc(Cl)c(Cl)c1)C(=O)CO2)NS(=O)(=O)c1cccs1` [Compound P039], below 1000 nM.
Turning to `Cc1cn(CCC(=O)NS(=O)(=O)c2ccc(F)c(F)c2)c2c(Oc3ccc(Cl)c(Cl)c3)cc(F)cc12` [Compound P387], the IC50 was below 1000 nM.
For `Cc1cn(CCC(=O)NS(=O)(=O)c2cccc(Cl)c2)c2c(Oc3ccc4ccccc4c3)cc(F)cc12` [Compound P381] the value was below 1000 nM.
As to `Cn1nc(NS(=O)(=O)c2cc(Cl)c(Cl)s2)c2c(Oc3ccc4ccccc4c3)cccc21` [Compound P284, 4,5-Dichloro-thiophene-2-sulfonic acid [1-methyl-4-(naphthalen-2-yloxy)-1H-indazol-3-yl]-amide], the IC50 lay in the range of 1000 to 10000 nM.
For `CC(C)C1C(=O)N(Cc2ccc(Cl)cc2Cl)c2c(CCC(=O)NS(=O)(=O)c3cccs3)cccc21` (stereo not drawn) [Compound P093] the value was 1000 to 10000 nM; for `O=C(C=Cc1cccc2c1N(Cc1ccc3ccccc3c1)C(=O)C21OCCO1)NS(=O)(=O)c1cc(Cl)c(Cl)s1` [Compound P114], below 1000 nM; for `O=C(C=Cc1cc(F)cc2ccn(Cc3ccc(Cl)cc3Cl)c12)NS(=O)(=O)c1cccs1` [Compound P061], below 1000 nM.
To `O=C(COc1cccc2c1C(Cc1ccc3ccccc3c1)C(=O)N2)NS(=O)(=O)c1cc(Cl)c(Cl)s1` (stereo not drawn) [Compound P158] belongs below 1000 nM; to `O=C(C=Cc1cccc2c1N(Cc1ccc3ccccc3c1)C(=O)C2)NS(=O)(=O)c1cc(F)c(F)cc1F` [Compound P416], below 1000 nM; to `Cc1cn(Cc2ccc(F)c(F)c2)c2c(/C=C/C(=O)NS(=O)(=O)c3cc(Cl)c(Cl)s3)cccc12` [Compound P135], below 1000 nM.
With `CN1C(=O)C(=Nc2ccc3ccccc3c2)c2c(C=CC(=O)NS(=O)(=O)c3cc(Cl)c(Cl)s3)cccc21` [Compound P245], the IC50 was below 1000 nM.
Consider `Cn1cc(C=CC(=O)NS(=O)(=O)c2cccc(F)c2)c2c(Oc3ccc4ccccc4c3)cccc21` [Compound P363], for which the IC50 is below 1000 nM.
For `CC12CCCC(C=CC(=O)NS(=O)(=O)c3cc(F)cc(F)c3)=C1N(Cc1ccc(F)c(F)c1)C(=O)C2` (stereo not drawn) [Compound P305] the value was below 1000 nM; for `Cc1cn(Cc2cn3ccccc3n2)c2c(C=CC(=O)NS(=O)(=O)c3ccc(Cl)cc3)cc(F)cc12` [Compound P405], below 1000 nM; for `Cn1cc(/C=C/C(=O)NS(=O)(=O)c2ccc(F)c(F)c2)c2c(Oc3ccc4ccccc4c3)cccc21` [Compound P334], below 1000 nM.
Turning to `O=C(C=Cc1cccc2c1N(Cc1ccc3ccccc3c1)C(=O)C2(O)C(F)(F)F)NS(=O)(=O)c1cccs1` (stereo not drawn) [Compound P104], the IC50 is below 1000 nM.
On to `O=C(COc1cccc2[nH]cc(S(=O)(=O)c3nc[nH]n3)c12)NS(=O)(=O)c1cc(Cl)c(Cl)s1` [Compound P240], for which the IC50 is below 1000 nM.
For `Cc1cn(CCC(=O)NS(=O)(=O)c2ccc(F)c(F)c2)c2c(Oc3ccc4ccccc4c3)cc(F)cc12` [Compound P379] the value was below 1000 nM; for `O=C(CNc1cccc2c1N(Cc1ccc3ccccc3c1)C(=O)CO2)NS(=O)(=O)c1cccs1` [Compound P049, Thiophen-2-sulfonic acid[2-(4-naphthalen-2-ylmethyl-3-oxo-3,4-dihydro-2H-benzo[1,4]oxazin-5-ylamino)-acetyl]-amide], 1000 to 10000 nM; for `Cc1cn(Cc2cn3ccccc3n2)c2c(C=CC(=O)NS(=O)(=O)c3ccccc3F)cc(F)cc12` [Compound P409], below 1000 nM.
To `O=C(C=Cc1cnn2ccn(Cc3ccc4ccccc4c3)c12)NS(=O)(=O)c1cccs1` [Compound P034] belongs below 1000 nM.
For `Cn1cc(C=CC(=O)NS(=O)(=O)c2ccc(F)c(F)c2)c2c(Oc3ccc(Cl)cc3)cccc21` [Compound P310] the value was below 1000 nM; for `O=C(COc1cccc2c1N(Cc1ccc(Cl)cc1Cl)C(=O)CO2)NS(=O)(=O)c1cccs1` [Compound P040], below 1000 nM; for `O=C(COc1cccc2oc(=O)n(Cc3ccc4ccccc4c3)c12)NS(=O)(=O)c1cccs1` [Compound P046], below 1000 nM.
On to `O=C(C=Cc1cccc2c1N(Cc1ccc3ccccc3c1)C(=O)C2)NS(=O)(=O)c1cc(Cl)c(Cl)s1` [Compound P179], for which the half-inhibitory concentration (IC50) was below 1000 nM.

The record behind these values is patent US7598397B2, “Sulfonamide peri-substituted bicyclics for occlusive artery disease” (deCODE genetics ehf, priority 2004, dated 2009).
